From patent US20220133842A1 (priority 2019, published 2022)
Read-outs that look alike come from different tables or passages of the source.

Tests used:
[1] = system: human or porcine epithelial cells

Compound	Apical fraction (T84 cells) [%]	Basal fraction (T84 cells) [%]	Intracellular fraction (T84 cells) [%]	Apical fraction (IPEC-J2 cells) [%]	Basal fraction (IPEC-J2 cells) [%]	Intracellular fraction (IPEC-J2 cells) [%]	intracellular accumulation [1]	Apical fraction (Caco-2 cells) [%]	Basal fraction (Caco-2 cells) [%]	Intracellular fraction (Caco-2 cells) [%]	Apical fraction (T84 cells; human) [%]	Basal fraction (T84 cells; human) [%]	Intracellular fraction (T84 cells; human) [%]	Apical fraction (IPEC-J2 cells; pig) [%]	Basal fraction (IPEC-J2 cells; pig) [%]	Intracellular fraction (IPEC-J2 cells; pig) [%]	Apical fraction (Caco-2 cells; human) [%]	Basal fraction (Caco-2 cells; human) [%]	Intracellular fraction (Caco-2 cells; human) [%]
CO/C1=C\C(C)=C\[C@@H](C)[C@@H](O)[C@@H](C)C/C(C)=C/C=C/[C@H](OC)[C@@H]([C@@H](C)[C@@H](O)[C@H](C)[C@@]2(O)C[C@@H](O)[C@H](C)[C@@H](C(C)C)O2)OC1=O [Bafilomycin A1]	2.5	30.5	68.0	0.1	28.1	71.8	19.5-77.4 % of the initial dose	0.1	22.5	77.4									
Cc1ncc([N+](=O)[O-])n1CCO [Metronidazole]											71.3	9.7	19.0	84.0	7.1	8.9	80.2	12.9	12.7
